# Reference: PMC4621027, “Hydroxyethylamine Based Phthalimides as New Class of Plasmepsin Hits: Design, Synthesis and Antimalarial Evaluation” (PLoS ONE, 2015)
# Read-outs that look alike come from different tables or passages of the source.
# Legend:
# P. falciparum 3D7 = experiment: SYBR green I-based fluorescence parasite growth assay, CQ sensitive strain; format: cell-based, Plasmodium falciparum; details: read-out: IC50 values ± SE, growth of P. falciparum (3D7)
# Method: (§1) For compound screening, SYBR green I-based fluorescence assay was setup as described in literature. Sorbitol synchronized parasites were incubated under normal culture conditions at 2% hematocrit and 1% parasitemia in the absence or presence of increasing concentrations of the compounds. Chloroquine (CQ) was used as positive control, while 0.4% DMSO was used as the negative control.
# (§2) We have studied the antimalarial effect of all the listed molecules in […] culture conditions in order to identify a putative lead structure for pharmacological applications.
# [1] = system: CQ resistant strain (7GB) of P. falciparum; experiment: Antiplasmodial activity against CQ resistant strain; format: cell-based; details: Plasmodium falciparum
# Method: as §1, §2
# human erythrocytes = experiment: In vitro hemolytic activity; format: cell-based; details: 3.125 to 100 μg/mL, 37°C, 1 h
# Method: In vitro hemolytic activity of all synthesized compounds was performed as per reported protocol with slight modifications. In brief, human erythrocytes were collected from Rotary Blood Bank (New Delhi, India) and suspended in phosphate buffer saline (PBS). The suspension (2% hemotocrit) was incubated with different concentrations (3.125 to 100 μg/mL) of the entire compound series at 37°C for 1 h. After 1 h, erythrocytes were pelleted at 3000 g for 10 min (Remi, R-8C/BL) at 4°C. The supernatant was collected and OD450 was determined spectrophotometrically (Biotek, ELx800 UV spectrophotometer) using PBS as a negative control and Triton X-100 for completely lysing the cells. The percent hemolysis was calculated using the following formula: Percent hemolysis = […]. The percent hemolysis was plotted against concentration of compounds for determining the dose cytotoxic to erythrocytes.
# [2] = MTT-colorimetric cytotoxicity assay; format: cell-based; details: human, MCF-7 cells, read-out: IC50, cytotoxicity on MCF7 cell line
# Method: (§3) Phthalimides were serially diluted in DMSO in a final concentration of 100, 25 and 6.25 μg mL^-1 and evaluated for their % cytotoxicity by using MTT-colorimetric assay on MCF-7 cell line. Cell lines were maintained in RPMI-1640 (Hi-Media, Mumbai) medium supplemented with heat inactivated FCS (10% v/v) and 100 U/mL of streptomycin and were cultured in a humidified 5% CO2 atmosphere at 37°C. 100 μL (~2×10^5) of cells were seeded into wells (per well) on a 96-well plate (Nunc, Maxi Sorp) and incubated for 16 h for adherence. After 16 h, media was aspirated from the wells and the cells were washed with RPMI-1640 without FCS. 75 μL of each compound and control was added to separate wells containing cell lines and incubated at 37°C in humidified 5% CO2 atmosphere for 4 h. After 4 h, media containing the compounds was replaced with 200 μL of normal RPMI-1640 and cells were further incubated for 48 h under same conditions. After 48 h media was replaced by 200 μL of MTT (3-(4, 5-dimethylthiazol-2-yl)-2, 5-diphenyltetrazolium bromide, 0.5 mg/mL of RPMI-1640) and further incubated for 2 h. The formazan crystals were formed and suspended in 100 μL iso-propanol containing 0.06 M HCl and 0.5% SDS. Aliquots were drawn from each well and colour intensity was measured spectrophotometrically in an ELISA plate reader (Biotek, ELx800) at 540 nm. Untreated cells were taken as control with 100% viability and cells without addition of MTT were used as blank. The relative cell viability (%) compared to control cells was calculated by [abs] sample/ [abs] control × 100.
# MCF-7 cell line = experiment: MTT-colorimetric cytotoxicity assay; format: cell-based; details: 100, 25 and 6.25 μg mL^-1
# Method: as §3
# plasmepsin 4 = target: T1, plasmepsin 4 (Plasmodium falciparum, UniProt Q8IM16); experiment: Inhibition of plasmepsin 4, chromogenic substrate cleavage assay; format: biochemical; details: pH 4.5; fit to competitive inhibition scheme
# T1 construct: preincubated at the assay pH for 3 minutes to allow conversion from the proenzyme to the mature enzyme form; made in house
# T1 sequence (Q8IM16 122-449): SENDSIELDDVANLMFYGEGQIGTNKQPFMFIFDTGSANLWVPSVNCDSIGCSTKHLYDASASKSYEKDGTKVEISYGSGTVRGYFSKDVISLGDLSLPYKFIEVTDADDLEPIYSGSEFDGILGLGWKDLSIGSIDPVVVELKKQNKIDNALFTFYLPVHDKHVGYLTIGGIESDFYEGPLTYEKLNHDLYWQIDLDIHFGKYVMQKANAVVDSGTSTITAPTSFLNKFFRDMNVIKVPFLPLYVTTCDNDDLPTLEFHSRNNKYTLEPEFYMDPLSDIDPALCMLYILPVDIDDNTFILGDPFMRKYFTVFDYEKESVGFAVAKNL
# Method: (§4) Synthetic compounds were dissolved in DMSO to make stock solutions at concentrations around 100 μM. Dilutions from these stocks were made to obtain solutions to use for studying inhibition of the plasmepsins 2 and 4 from P. falciparum. Assays of enzymatic activity were typically done using 50 micromolar substrate and 50 nanomolar enzyme at pH 4.5. The protein samples were preincubated at the assay pH for 3 minutes to allow conversion from the proenzyme to the mature enzyme form, then immediately mixed with inhibitor solutions and incubated for a further 5 minutes to permit the enzyme-inhibitor complex to form. Following this, the samples were mixed with samples of the substrate to yield a 50 μM substrate concentration in the final assay solution and immediately placed in a recording spectrophotometer to follow the reaction. The cleavage of the chromogenic substrate yields a shift in absorbance that can be quantified by the decrease in absorbance at 300 nm. Compounds were mixed with the enzymes at concentrations ranging from 10 to 50 μM range and the effect on enzyme activity studied in duplicate assays.
# (§5) A second inhibitor concentration was chosen that would yield approximately 30–35% inhibition and a third inhibitor concentration was chosen to yield approximately 65–70% inhibition. The three resulting curves of initial velocity versus substrate concentration were fit simultaneously to the competitive inhibition scheme; this yields values of Vmax, Km, and Ki.
# (§6) Plasmepsins, a family of aspartic proteases of malaria parasite, are known to participate in a wide variety of cellular processes essential for parasite survival. […] Similarly, plasmepsin 4 from P. falciparum can be prepared and activated. Catalytic activity of the plasmepsins can be studied by following the change in absorbance at 300 nm as cleavage occur between a Phe and a nitroPhe in the synthetic substrate, Lys-Pro-Ile-Glu-Phe-NO2Phe-Arg-Leu. The compounds listed in Tables 1, 2 and 3 were assayed for inhibition by preincubating with differnt concentrations of the compound with equal aliquots of either plasmepsin 2 or 4 followed by mixing with the assay substrate.
# plasmepsin 2 = target: T2, plasmepsin 2 (Plasmodium falciparum, UniProt P46925); experiment: Inhibition of plasmepsin 2, chromogenic substrate cleavage assay; format: biochemical; details: pH 4.5; fit to competitive inhibition scheme
# T2 construct: preincubated at the assay pH for 3 minutes to allow conversion from the proenzyme to the mature enzyme form; made in house
# T2 sequence (P46925 125-453): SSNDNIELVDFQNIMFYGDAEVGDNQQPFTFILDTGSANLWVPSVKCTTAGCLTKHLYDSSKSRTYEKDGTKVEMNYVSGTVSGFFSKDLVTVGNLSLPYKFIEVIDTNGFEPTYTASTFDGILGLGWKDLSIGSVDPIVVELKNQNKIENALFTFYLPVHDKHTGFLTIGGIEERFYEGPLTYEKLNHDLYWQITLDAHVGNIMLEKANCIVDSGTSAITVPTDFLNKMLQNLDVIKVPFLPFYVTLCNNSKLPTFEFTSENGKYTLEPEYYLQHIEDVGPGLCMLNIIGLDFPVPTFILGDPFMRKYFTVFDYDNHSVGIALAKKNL
# Method: as §4, §5, §6
# [3] = Plasmodium falciparum, CQ sensitive strain 3D7, 48 h incubation
# [4] = values in brackets, 48 h incubation, read-out: IC50 values ± SE, CQ resistant strain (7GB) (converted)
SMILES,IC50 (P. falciparum 3D7; [3]),melting point,also measured
"C[C@@H]1CC[C@H]2[C@@H](C)C(=O)O[C@@H]3O[C@@]4(C)CC[C@@H]1[C@]32OO4 [ART, reference compound]",,,"IC50 (P. falciparum 3D7; CQ sensitive strain 3D7, 48 h incubation): 0.021 µM"
"CCN(CC)CCCC(C)Nc1ccnc2cc(Cl)ccc12 (centres unmarked) [CQ, Chloroquine, reference compound]",,,"IC50 ([1]; 48 h, read-out: IC50 values ± SE, CQ resistant strain (7GB)): 1.32 µM; IC50 (P. falciparum 3D7; Plasmodium falciparum, 3D7, 48 h): 0.059 µM"
CN1CCN(C[C@H](O)[C@@H](Cc2ccccc2)NC(=O)OC(C)(C)C)CC1 [Compound 5a],5.88 ± 0.23 µM,,hemolysis of human erythrocytes (in words) (human erythrocytes): least hemotoxic; IC50 at 4 h [2]: > 8 µM
CCN1CCN(C[C@H](O)[C@@H](Cc2ccccc2)NC(=O)OC(C)(C)C)CC1 [Compound 5b],5.4 ± 0.06 µM,89 to 91 °C,hemolysis of human erythrocytes (in words) (human erythrocytes): highest hemotoxicity
CC(C)(C)OC(=O)N[C@H](Cc1ccccc1)[C@@H](O)CN1CCN(Cc2ccc(F)cc2)CC1 [Compound 5c],2.56 ± 0.06 µM,108 to 110 °C,IC50 at 4 h [2]: > 8 µM
CC(C)(C)OC(=O)N[C@H](Cc1ccccc1)[C@@H](O)CN1CCN(Cc2ccc(Br)cc2)CC1 [Compound 5d],4.9 ± 0.01 µM,111 to 114 °C,
CC(C)(C)OC(=O)N[C@H](Cc1ccccc1)[C@@H](O)CN1CCN(C[C@H](O)[C@@H](Cc2ccccc2)NC(=O)OC(C)(C)C)CC1 [Compound 5f],3.11 ± 0.11 µM,,cytotoxic effect on MCF7 cell line (in words) (MCF-7 cell line): maximal toxicity
CC(C)C[C@@H](C(=O)N[C@H](Cc1ccccc1)[C@@H](O)CN1CCN(C)CC1)N1C(=O)c2ccccc2C1=O [Compound 6a],4.61 ± 0.06 µM,141 to 143 °C,
CC(C)[C@@H](C(=O)N[C@H](Cc1ccccc1)[C@@H](O)CN1CCN(C)CC1)N1C(=O)c2ccccc2C1=O [Compound 6c],4.58 ± 0.04 µM,91 to 93 °C,
CC[C@@H](C)[C@@H](C(=O)N[C@H](Cc1ccccc1)[C@@H](O)CN1CCN(C)CC1)N1C(=O)c2ccccc2C1=O [Compound 6d],6.33 ± 0.13 µM,104 to 106 °C,hemolysis of human erythrocytes (in words) (human erythrocytes): lower hemolysis
CC(C)[C@@H](C(=O)N[C@H](Cc1ccccc1)[C@@H](O)CN1CCN(Cc2ccc(F)cc2)CC1)N1C(=O)c2ccccc2C1=O [Compound 6k],4.59 ± 0.07 µM,137 to 139 °C,IC50 at 4 h [2]: > 8 µM
CC(C)[C@@H](C(=O)N[C@H](Cc1ccccc1)[C@@H](O)CN1CCN(Cc2ccc(Br)cc2)CC1)N1C(=O)c2ccccc2C1=O [Compound 6o],1.25 ± 0.08 µM,,"IC50 [1, 4]: 3.01 µM; cytotoxic effect on MCF7 cell line (in words) (MCF-7 cell line): low cytotoxic effect"
CC(C)C[C@@H](C(=O)N[C@H](Cc1ccccc1)[C@@H](O)CN1CCN(C[C@H](O)[C@@H](Cc2ccccc2)NC(=O)[C@H](CC(C)C)N2C(=O)c3ccccc3C2=O)CC1)N1C(=O)c2ccccc2C1=O [Compound 6r],5.12 ± 0.43 µM,141 to 143 °C,hemolysis of human erythrocytes (in words) (human erythrocytes): least hemotoxic; Ki (plasmepsin 4): > 50 µM; Ki (plasmepsin 2): 1.1 ± 0.1 µM
CC(C)[C@@H](C(=O)N[C@H](Cc1ccccc1)[C@@H](O)CN1CCN(C[C@H](O)[C@@H](Cc2ccccc2)NC(=O)[C@H](C(C)C)N2C(=O)c3ccccc3C2=O)CC1)N1C(=O)c2ccccc2C1=O [Compound 6t],7.28 ± 0.43 µM,123 to 125 °C,Ki (plasmepsin 4): 3.3 ± 0.3 µM; Ki (plasmepsin 2): > 20 µM
CCC(C)[C@@H](C(=O)N[C@H](Cc1ccccc1)[C@@H](O)CN1CCN(C[C@H](O)[C@@H](Cc2ccccc2)NC(=O)[C@H](C(C)CC)N2C(=O)c3ccccc3C2=O)CC1)N1C(=O)c2ccccc2C1=O (some centres unmarked) [Compound 6u],3.24 ± 0.06 µM,131 to 134 °C,Ki (plasmepsin 4): > 50 µM; Ki (plasmepsin 2): 0.99 ± 0.1 µM

# Further lines, with some results ahead:
IC50 (P. falciparum 3D7; [3]),melting point,SMILES,also measured
3.41 ± 0.03 µM,101 to 103 °C,CN1CCN(C[C@H](O)[C@@H](Cc2ccccc2)NC(=O)[C@H](Cc2ccccc2)N2C(=O)c3ccccc3C2=O)CC1 [Compound 6b],
2.13 ± 0.02 µM,117 to 119 °C,CCN1CCN(C[C@H](O)[C@@H](Cc2ccccc2)NC(=O)[C@H](CC(C)C)N2C(=O)c3ccccc3C2=O)CC1 [Compound 6e],
2.96 ± 0.43 µM,108 to 111 °C,CCN1CCN(C[C@H](O)[C@@H](Cc2ccccc2)NC(=O)[C@H](Cc2ccccc2)N2C(=O)c3ccccc3C2=O)CC1 [Compound 6f],
3.8 ± 0.03 µM,108 to 111 °C,CCN1CCN(C[C@H](O)[C@@H](Cc2ccccc2)NC(=O)[C@H](C(C)C)N2C(=O)c3ccccc3C2=O)CC1 [Compound 6g],
5.27 ± 0.06 µM,134 to 136 °C,CC(C)C[C@@H](C(=O)N[C@H](Cc1ccccc1)[C@@H](O)CN1CCN(Cc2ccc(F)cc2)CC1)N1C(=O)c2ccccc2C1=O [Compound 6i],
1.33 ± 0.04 µM,121 to 123 °C,O=C(N[C@H](Cc1ccccc1)[C@@H](O)CN1CCN(Cc2ccc(F)cc2)CC1)[C@H](Cc1ccccc1)N1C(=O)c2ccccc2C1=O [Compound 6j],"IC50 [1, 4]: 3.6 µM; hemolysis of human erythrocytes (in words) (human erythrocytes): lower hemolysis; cytotoxic effect on MCF7 cell line (in words) (MCF-7 cell line): low cytotoxic effect"
6.96 ± 0.1 µM,143 to 145 °C,CC(C)C[C@@H](C(=O)N[C@H](Cc1ccccc1)[C@@H](O)CN1CCN(Cc2ccc(Br)cc2)CC1)N1C(=O)c2ccccc2C1=O [Compound 6m],IC50 at 4 h [2]: > 8 µM
3.14 ± 0.02 µM,131 to 133 °C,O=C(N[C@H](Cc1ccccc1)[C@@H](O)CN1CCN(Cc2ccc(Br)cc2)CC1)[C@H](Cc1ccccc1)N1C(=O)c2ccccc2C1=O [Compound 6n],
8.54 ± 0.04 µM,134 to 136 °C,O=C(N[C@H](Cc1ccccc1)[C@@H](O)CN1CCC(N2CCCCC2)CC1)[C@H](Cc1ccccc1)N1C(=O)c2ccccc2C1=O [Compound 6q],IC50 at 4 h [2]: > 8 µM
